Data from patent US20260028365A1 (BIOGEN MA INC., priority 2022, published 2026).
Where a name gives a salt, the structure may show the parent alone.

What was measured:
[1] = target: Tyk2 (Homo sapiens (Human), UniProt P29597); assay: pSTAT4 Cell Assay (MSD, NK92 cells); assay type: cell-based; conditions: MSD
[2] = target: JH2 domain of human Tyk2 (Homo sapiens (Human), UniProt P29597); assay: JH2 Biochemical Assay (TR-FRET probe displacement); assay type: binding; conditions: TR-FRET probe displacement, JH2 domain of human Tyk2
JH2 domain of human Tyk2, sequence (P29597 575-876): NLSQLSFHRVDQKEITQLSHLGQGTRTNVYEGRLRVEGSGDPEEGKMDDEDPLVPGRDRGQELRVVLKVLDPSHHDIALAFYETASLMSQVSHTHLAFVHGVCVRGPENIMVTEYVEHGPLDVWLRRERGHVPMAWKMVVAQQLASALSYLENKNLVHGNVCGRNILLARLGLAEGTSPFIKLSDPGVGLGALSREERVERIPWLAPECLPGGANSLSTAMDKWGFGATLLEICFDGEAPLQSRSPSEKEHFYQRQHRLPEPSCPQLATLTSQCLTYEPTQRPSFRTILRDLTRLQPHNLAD

Tyk2, sequence (P29597 whole entry, the tested form may be a part): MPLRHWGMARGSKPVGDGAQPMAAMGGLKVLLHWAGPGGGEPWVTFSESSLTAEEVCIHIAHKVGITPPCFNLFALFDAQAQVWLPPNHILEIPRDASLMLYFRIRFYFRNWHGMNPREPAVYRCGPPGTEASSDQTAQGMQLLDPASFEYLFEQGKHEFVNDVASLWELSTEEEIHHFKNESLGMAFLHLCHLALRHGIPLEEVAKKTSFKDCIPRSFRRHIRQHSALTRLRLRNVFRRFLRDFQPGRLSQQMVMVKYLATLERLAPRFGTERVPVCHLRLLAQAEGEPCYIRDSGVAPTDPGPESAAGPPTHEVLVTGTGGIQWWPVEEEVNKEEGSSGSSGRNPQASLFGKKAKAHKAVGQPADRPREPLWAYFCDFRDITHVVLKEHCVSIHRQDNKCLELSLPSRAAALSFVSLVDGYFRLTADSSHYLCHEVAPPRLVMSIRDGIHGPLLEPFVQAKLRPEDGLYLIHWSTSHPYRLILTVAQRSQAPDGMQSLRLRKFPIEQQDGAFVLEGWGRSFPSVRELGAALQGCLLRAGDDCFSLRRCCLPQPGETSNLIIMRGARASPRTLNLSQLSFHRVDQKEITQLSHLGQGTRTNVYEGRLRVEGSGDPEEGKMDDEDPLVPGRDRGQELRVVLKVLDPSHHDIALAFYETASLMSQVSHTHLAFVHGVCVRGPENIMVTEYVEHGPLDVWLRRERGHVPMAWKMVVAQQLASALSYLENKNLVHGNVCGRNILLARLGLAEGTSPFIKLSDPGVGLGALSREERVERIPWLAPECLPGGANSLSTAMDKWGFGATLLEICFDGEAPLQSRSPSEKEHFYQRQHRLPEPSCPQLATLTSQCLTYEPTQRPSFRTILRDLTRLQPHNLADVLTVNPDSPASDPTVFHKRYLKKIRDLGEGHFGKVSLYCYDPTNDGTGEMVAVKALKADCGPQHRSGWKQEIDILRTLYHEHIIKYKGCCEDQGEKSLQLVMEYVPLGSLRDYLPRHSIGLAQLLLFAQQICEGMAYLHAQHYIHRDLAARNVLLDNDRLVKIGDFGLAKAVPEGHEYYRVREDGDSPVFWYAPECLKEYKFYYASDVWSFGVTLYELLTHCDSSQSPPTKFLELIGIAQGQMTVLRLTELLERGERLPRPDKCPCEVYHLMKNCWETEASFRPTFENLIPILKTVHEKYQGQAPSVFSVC

Compound	IC50 [1] [nM]	IC50 [2] [nM]
COCCn1cc(-c2cnc(NC(C)=O)cc2Nc2cc(C)nc(C(C)(F)F)n2)nn1 [Example 259, N-(4-((2-(1,1-difluoroethyl)-6-methylpyrimidin-4-yl)amino)-5-(1-(2-methoxyethyl)-1H-1,2,3-triazol-4-yl)pyridin-2-yl)acetamide]	≤ 10	≤ 10
CCc1cc(Nc2cc(NC(C)=O)ncc2-c2cnn(CCOC)n2)nc(C(C)(F)F)n1 [Example 261, N-(4-((2-(1,1-difluoroethyl)-6-ethylpyrimidin-4-yl)amino)-5-(2-(2-methoxyethyl)-2H-1,2,3-triazol-4-yl)pyridin-2-yl)acetamide]	≤ 10	≤ 10
CCc1cc(Nc2cc(NC(C)=O)ncc2-c2cn(CCOC)nn2)nc(C(C)(F)F)n1 [Example 262, N-(4-((2-(1,1-difluoroethyl)-6-ethylpyrimidin-4-yl)amino)-5-(1-(2-methoxyethyl)-1H-1,2,3-triazol-4-yl)pyridin-2-yl)acetamide]	≤ 10	≤ 10
COCCn1cnc(-c2cnc(NC(C)=O)cc2Nc2cc(C)nc(C(C)(F)F)n2)n1 [Example 263, N-(4-((2-(1,1-difluoroethyl)-6-methylpyrimidin-4-yl)amino)-5-(1-(2-methoxyethyl)-1H-1,2,4-triazol-3-yl)pyridin-2-yl)acetamide]	100 to 1000	≤ 10
COC(C)(C)c1cc(-c2cnc(NC(C)=O)cc2Nc2cc(C)nc(C(C)(F)F)n2)ncn1 [Example 264, N-(4-((2-(1,1-difluoroethyl)-6-methylpyrimidin-4-yl)amino)-5-(6-(2-methoxypropan-2-yl)pyrimidin-4-yl)pyridin-2-yl)acetamide]	100 to 1000	100 to 1000
CC(=O)Nc1cc(Nc2ccnc(C(C)(F)F)n2)c(-c2ccc(COC(F)F)cn2)cn1 [Example 265, N-(4′-((2-(1,1-difluoroethyl)pyrimidin-4-yl)amino)-5-((difluoromethoxy)methyl)-[2,3′-bipyridin]-6′-yl)acetamide]	≤ 10	≤ 10
CCc1cc(Nc2cc(NC(C)=O)ncc2-c2ccc(OCCOC)nn2)nc(C(C)(F)F)n1 [Example 269, N-(4-((2-(1,1-difluoroethyl)-6-ethylpyrimidin-4-yl)amino)-5-(6-(2-methoxyethoxy)pyridazin-3-yl)pyridin-2-yl)acetamide trifluoroacetate]	≤ 10	≤ 10
CC(=O)Nc1cc(Nc2cc(C)nc(C(C)(F)F)n2)c(-c2csc(N(C)C)n2)cn1 [Example 271, N-(4-((2-(1,1-difluoroethyl)-6-methylpyrimidin-4-yl)amino)-5-(2-(dimethylamino)thiazol-4-yl)pyridin-2-yl)acetamide]	≤ 10	≤ 10
CC(=O)Nc1cc(Nc2cc(C)nc(C(C)(F)F)n2)c(-c2cc(C(C)(C)O)n(C)n2)cn1 [Example 272, N-(4-((2-(1,1-difluoroethyl)-6-methylpyrimidin-4-yl)amino)-5-(5-(2-hydroxypropan-2-yl)-1-methyl-1H-pyrazol-3-yl)pyridin-2-yl)acetamide]	≤ 10	≤ 10
COc1cncc(-c2cnc(NC(C)=O)cc2Nc2ccnc(C(C)(F)F)n2)n1 [Example 273, N-(4-((2-(1,1-difluoroethyl)pyrimidin-4-yl)amino)-5-(6-methoxypyrazin-2-yl)pyridin-2-yl)acetamide]	100 to 1000	10 to 100
COCCNc1cncc(-c2cnc(NC(C)=O)cc2Nc2ccnc(C(C)(F)F)n2)n1 [Example 274, N-(4-((2-(1,1-difluoroethyl)pyrimidin-4-yl)amino)-5-(6-((2-methoxyethyl)amino)pyrazin-2-yl)pyridin-2-yl)acetamide]	10 to 100	≤ 10
COCCN(C)c1cncc(-c2cnc(NC(C)=O)cc2Nc2ccnc(C(C)(F)F)n2)n1 [Example 275, N-(4-((2-(1,1-difluoroethyl)pyrimidin-4-yl)amino)-5-(6-((2-methoxyethyl)(methyl)amino)pyrazin-2-yl)pyridin-2-yl)acetamide]	100 to 1000	≤ 10
CC(=O)Nc1cc(Nc2cc(C)nc(C(C)(F)F)n2)c(-n2cc3c(n2)CCN(C)C3)cn1 [Example 277, N-(4-((2-(1,1-difluoroethyl)-6-methylpyrimidin-4-yl)amino)-5-(5-methyl-4,5,6,7-tetrahydro-2H-pyrazolo[4,3-c]pyridin-2-yl)pyridin-2-yl)acetamide]	≤ 10	≤ 10
CCc1cc(Nc2cc(NC(C)=O)ncc2-c2nc(C)no2)nc(C(C)(F)F)n1 [Example 281, N-(4-((2-(1,1-difluoroethyl)-6-ethylpyrimidin-4-yl)amino)-5-(3-methyl-1,2,4-oxadiazol-5-yl)pyridin-2-yl)acetamide]	10 to 100	≤ 10
CC(=O)Nc1cc(Nc2cc(C)nc(C(C)(F)F)n2)c(-c2cc3n(n2)CCNC3)cn1 [Example 282, N-(4-((2-(1,1-difluoroethyl)-6-methylpyrimidin-4-yl)amino)-5-(4,5,6,7-tetrahydropyrazolo[1,5-a]pyrazin-2-yl)pyridin-2-yl)acetamide]	≤ 10	≤ 10
CCN1CCn2nc(-c3cnc(NC(C)=O)cc3Nc3cc(C)nc(C(C)(F)F)n3)cc2C1 [Example 283, N-(4-((2-(1,1-difluoroethyl)-6-methylpyrimidin-4-yl)amino)-5-(5-ethyl-4,5,6,7-tetrahydropyrazolo[1,5-a]pyrazin-2-yl)pyridin-2-yl)acetamide]	≤ 10	≤ 10
CC(=O)Nc1cc(Nc2cc(C)nc(C(C)(F)F)n2)c(-c2cc(C#N)cnn2)cn1 [Example 286, N-(5-(5-cyanopyridazin-3-yl)-4-((2-(1,1-difluoroethyl)-6-methylpyrimidin-4-yl)amino)pyridin-2-yl)acetamide]	100 to 1000	≤ 10
CC(=O)Nc1cc(Nc2cc(C)nc(C(C)(F)F)n2)c(-c2cc(CN(C)C)n(C)n2)cn1 [Example 287, N-(4-((2-(1,1-difluoroethyl)-6-methylpyrimidin-4-yl)amino)-5-(5-((dimethylamino)methyl)-1-methyl-1H-pyrazol-3-yl)pyridin-2-yl)acetamide]	≤ 10	≤ 10
Cc1cc(Nc2cc(NC(N)=O)ncc2-c2ccn(C)n2)nc(C(C)(F)F)n1 [Example 288, 1-(4-((2-(1,1-difluoroethyl)-6-methylpyrimidin-4-yl)amino)-5-(1-methyl-1H-pyrazol-3-yl)pyridin-2-yl)urea]	≤ 10	≤ 10
CC(=O)Nc1cc(Nc2cc(C)nc(C(C)(F)F)n2)c(OCCCF)cn1 [Example 295, N-(4-((2-(1,1-difluoroethyl)-6-methylpyrimidin-4-yl)amino)-5-(3-fluoropropoxy)pyridin-2-yl)acetamide]	10 to 100	≤ 10
COc1cncc(-c2cc(Nc3cc(NC(C)=O)ncc3OC)nc(C(C)(F)F)n2)c1 [Example 296, N-(4-((2-(1,1-difluoroethyl)-6-(5-methoxypyridin-3-yl)pyrimidin-4-yl)amino)-5-methoxypyridin-2-yl)acetamide]	100 to 1000	10 to 100
CCOc1cnc(NC(C)=O)cc1Nc1cc(OC2CC3(COC3)C2)nc(C(C)(F)F)n1 [Example 297, N-(4-((6-((2-oxaspiro[3.3]heptan-6-yl)oxy)-2-(1,1-difluoroethyl)pyrimidin-4-yl)amino)-5-ethoxypyridin-2-yl)acetamide]	≤ 10	≤ 10
CO[C@@H](C)COc1cnc(NC(C)=O)cc1Nc1cc(OC2CC2)nc(C(C)(F)F)n1 [Example 299, (S)-N-(4-((6-cyclopropoxy-2-(1,1-difluoroethyl)pyrimidin-4-yl)amino)-5-(2-methoxypropoxy)pyridin-2-yl)acetamide]	≤ 10	≤ 10
CC(=O)Nc1cc(Nc2cc(OC3CC3)nc(C(C)(F)F)n2)c(Oc2cnn(C)c2)cn1 [Example 301, N-(4-((6-cyclopropoxy-2-(1,1-difluoroethyl)pyrimidin-4-yl)amino)-5-((1-methyl-1H-pyrazol-4-yl)oxy)pyridin-2-yl)acetamide]	100 to 1000	10 to 100
CCOc1cnc(NC(C)=O)cc1Nc1cc(-c2cnn(C(F)F)c2)nc(C(C)(F)F)n1 [Example 303, N-(4-((2-(1,1-difluoroethyl)-6-(1-(difluoromethyl)-1H-pyrazol-4-yl)pyrimidin-4-yl)amino)-5-ethoxypyridin-2-yl)acetamide]	10 to 100	≤ 10
CCOc1cnc(NC(C)=O)cc1Nc1cc(-c2cnn(CC(=O)O)c2)nc(C(C)(F)F)n1 [Example 305, 2-(4-(6-((2-acetamido-5-ethoxypyridin-4-yl)amino)-2-(1,1-difluoroethyl)pyrimidin-4-yl)-1H-pyrazol-1-yl)acetic acid]	≥ 1000	≤ 10
CCOc1cnc(NC(C)=O)cc1Nc1cc(-c2cnn(C(=O)OC(C)(C)C)c2)nc(C(C)(F)F)n1 [Example 307, tert-butyl 4-(6-((2-acetamido-5-ethoxypyridin-4-yl)amino)-2-(1,1-difluoroethyl)pyrimidin-4-yl)-1H-pyrazole-1-carboxylate]	10 to 100	≤ 10
CCOc1cnc(NC(C)=O)cc1Nc1cc(-c2cnn(CCN(C)C)c2)nc(C(C)(F)F)n1 [Example 308, N-(4-((2-(1,1-difluoroethyl)-6-(1-(2-(dimethylamino)ethyl)-1H-pyrazol-4-yl)pyrimidin-4-yl)amino)-5-ethoxypyridin-2-yl)acetamide]	10 to 100	≤ 10
CCOc1cnc(NC(C)=O)cc1Nc1cc(-c2cnn(CC(F)(F)F)c2)nc(C(C)(F)F)n1 [Example 309, N-(4-((2-(1,1-difluoroethyl)-6-(1-(2,2,2-trifluoroethyl)-1H-pyrazol-4-yl)pyrimidin-4-yl)amino)-5-ethoxypyridin-2-yl)acetamide]	10 to 100	≤ 10
CCOc1cnc(NC(C)=O)cc1Nc1cc(-c2cnn(CCOC)c2)nc(C(C)(F)F)n1 [Example 310, N-(4-((2-(1,1-difluoroethyl)-6-(1-(2-methoxyethyl)-1H-pyrazol-4-yl)pyrimidin-4-yl)amino)-5-ethoxypyridin-2-yl)acetamide]	10 to 100	≤ 10
